The subject of test [1] is Candida albicans. Kind of test: Compound was evaluated for antifungal activity as minimum cell growth inhibition against Candida albicans - 2005. Type of test: functional.
Test [2] relates to Candida albicans. Kind of test: Compound was evaluated for antifungal activity as minimum cell growth inhibition against Candida albicans - 4711E. It is filed as functional.
The next test has as its system Kluyveromyces marxianus. Kind of test: Compound was evaluated for antifungal activity as minimum cell growth inhibition against Candida pseudotropicalis -2371. It is filed as functional, candida pseudotrop.
Another test relates to Nakaseomyces glabratus. Kind of test: Compound was evaluated for antifungal activity as minimum cell growth inhibition against Candida glabrata - 2375E. Type of test: functional.
The next test relates to Cryptococcus neoformans. Kind of test: Compound was evaluated for antifungal activity as minimum cell growth inhibition against Cryptococcus neoformans - 2867. Type of test: functional.
The test system of the next test is Candida tropicalis. Kind of test: Compound was evaluated for antifungal activity as minimum cell growth inhibition against Candida tropicalis - 2808. It is filed as functional.

The source of these data is ChEMBL document CHEMBL1135111, “Antifungal sordarins. part 3: synthesis and structure-activity relationships of 2',3'-fused oxirane derivatives” (Bioorg Med Chem Lett, 2002).

Converted amounts (≈) assume the structure as drawn.

With `CO[C@H]1[C@@H]2O[C@@H]2[C@H](OCC23C[C@@H]4[C@H](C)CC[C@H]4C4(C=O)CC2C=C(C(C)C)C34C(=O)O)O[C@@H]1CO` (some centres not stated), the MIC (in general, the smallest concentration in the dilution series that meets the test's criterion for growth inhibition) was 4 µg/mL (≈ 8.15 µM) against Candida albicans [1]; 16 µg/mL (≈ 32.6 µM) with Candida albicans [2]; 16 µg/mL (≈ 32.6 µM) in the test with Kluyveromyces marxianus; over 125 µg/mL in the test on Nakaseomyces glabratus; over 125 µg/mL in the test with Cryptococcus neoformans; 31 µg/mL (≈ 63.2 µM) against Candida tropicalis.

`CO[C@H]1[C@H]2O[C@H]2[C@@H](OCC23C[C@@H]4[C@H](C)CC[C@H]4C4(C=O)CC2C=C(C(C)C)C34C(=O)O)O[C@@H]1C` (some centres not stated): the MIC was 4 µg/mL (≈ 8.43 µM) in the test on Candida albicans [1]; 16 µg/mL (≈ 33.7 µM) against Candida albicans [2]; 2 µg/mL (≈ 4.21 µM) against Kluyveromyces marxianus; 31 µg/mL (≈ 65.3 µM) in the test on Nakaseomyces glabratus; 125 µg/mL (≈ 263 µM) against Cryptococcus neoformans; over 125 µg/mL against Candida tropicalis.

Consider `COC[C@H]1O[C@@H](OCC23C[C@@H]4[C@H](C)CC[C@H]4C4(C=O)CC2C=C(C(C)C)C34C(=O)O)[C@H]2O[C@H]2[C@@H]1OC` (some centres not stated), for which the MIC with Candida albicans [1] is 0.06 µg/mL (≈ 0.119 µM); against Candida albicans [2], 0.5 µg/mL (≈ 0.991 µM); with Kluyveromyces marxianus it was 0.25 µg/mL (≈ 0.495 µM); in the test with Nakaseomyces glabratus it was 62 µg/mL (≈ 123 µM); against Cryptococcus neoformans it was 16 µg/mL (≈ 31.7 µM); against Candida tropicalis, 4 µg/mL (≈ 7.93 µM).

As for `C/C=C/C=C(/O[C@H]1[C@H](O)[C@H](OCC23C[C@@H]4[C@H](C)CC[C@H]4C4(C=O)CC2C=C(C(C)C)C34C(=O)O)O[C@H](C)[C@H]1O)C(=O)C(CC)CC` (some centres not stated), the MIC in the test with Candida albicans [1] was 0.015 µg/mL (≈ 0.0233 µM); against Candida albicans [2], 0.25 µg/mL (≈ 0.389 µM); in the test with Kluyveromyces marxianus, 0.03 µg/mL (≈ 0.0467 µM); against Nakaseomyces glabratus it was over 125 µg/mL; in the test on Cryptococcus neoformans, 0.25 µg/mL (≈ 0.389 µM); in the test on Candida tropicalis it was 0.06 µg/mL (≈ 0.0933 µM).

As to `CO[C@H]1[C@@H]2S[C@@H]2[C@H](OCC23C[C@@H]4[C@H](C)CC[C@H]4C4(C=O)CC2C=C(C(C)C)C34C(=O)O)O[C@@H]1C` (some centres not stated), the MIC was 0.03 µg/mL (≈ 0.0611 µM) against Candida albicans [1]; 0.12 µg/mL (≈ 0.245 µM) in the test on Candida albicans [2]; 0.008 µg/mL (≈ 0.0163 µM) against Kluyveromyces marxianus; 16 µg/mL (≈ 32.6 µM) in the test on Nakaseomyces glabratus; over 125 µg/mL against Cryptococcus neoformans; 0.5 µg/mL (≈ 1.02 µM) with Candida tropicalis.

As to `CO[C@H]1[C@@H]2O[C@@H]2[C@H](OCC23C[C@@H]4[C@H](C)CC[C@H]4C4(C=O)CC2C=C(C(C)C)C34C(=O)O)O[C@@H]1C` (some centres not stated), the MIC against Candida albicans [1] came out at 0.06 µg/mL (≈ 0.126 µM); with Candida albicans [2] it was 0.25 µg/mL (≈ 0.527 µM); against Kluyveromyces marxianus, 0.03 µg/mL (≈ 0.0632 µM); in the test on Nakaseomyces glabratus, 16 µg/mL (≈ 33.7 µM); in the test on Cryptococcus neoformans, 8 µg/mL (≈ 16.9 µM); against Candida tropicalis, 0.25 µg/mL (≈ 0.527 µM).

Consider `CO[C@H]1[C@@H]2O[C@@H]2[C@@H](OCC23C[C@@H]4[C@H](C)CC[C@H]4C4(C=O)CC2C=C(C(C)C)C34C(=O)O)O[C@@H]1C` (some centres not stated), for which the MIC is 4 µg/mL (≈ 8.43 µM) in the test on Candida albicans [1]; 8 µg/mL (≈ 16.9 µM) in the test with Candida albicans [2]; 1 µg/mL (≈ 2.11 µM) with Kluyveromyces marxianus; 31 µg/mL (≈ 65.3 µM) in the test on Nakaseomyces glabratus; over 125 µg/mL against Cryptococcus neoformans; 31 µg/mL (≈ 65.3 µM) against Candida tropicalis.

For `CO[C@H]1[C@H]2O[C@H]2[C@H](OCC23C[C@@H]4[C@H](C)CC[C@H]4C4(C=O)CC2C=C(C(C)C)C34C(=O)O)O[C@@H]1C` (some centres not stated), the MIC against Candida albicans [1] was 0.25 µg/mL (≈ 0.527 µM); with Kluyveromyces marxianus, 0.12 µg/mL (≈ 0.253 µM); against Nakaseomyces glabratus, 125 µg/mL (≈ 263 µM); against Cryptococcus neoformans, over 125 µg/mL; in the test with Candida tropicalis it was 4 µg/mL (≈ 8.43 µM).
